Assay results published in patent publication US20060013804A1, “Modulation of stem cell differentiation by modulation of caspase-3 activity” (Ottawa Health Research Institute, priority 2002, published 2006).

System: endogenous kinases (MBP-directed cellular kinase activities)
Test: Two-dimensional in-gel kinase assay of C2C12 lysates with MBP as substrate
Format: cell-based, mouse
Conditions: C2C12, 12 h low serum treatment with inhibitor, vs untreated
Procedure: Samples were subjected to in-gel kinase analyses as previously described (Kolodziejczyk, S. M., et al., (1999) Curr Biol 9, 1203-1206) using MBP or Histone H1 as the target substrate. For two-dimension in-gel kinase analyses, samples were isoelectric focused in the first dimension using pH 4.0-7.0 IPG strips (BioRad). Second dimension analyses was performed using 10% SDS-PAGE containing Histone H1 as the in-gel substrate. Additional in-gel kinase analyses was performed as above.
A two-dimensional in-gel kinase assay was employed using myelin basic protein (MBP) as a target substrate to identify protein kinases that may be targeted by caspase-3 activity. C2C12 cells were treated with caspase-3 inhibitor and total protein lysates were isoelectrically focused in the first dimension and then separated in the second dimension using MBP as the crosslinked substrate. […] Similar results were seen using histone H1 as the in-gel substrate.

## COC(=O)CC[C@H](NC(=O)[C@H](CC(=O)OC)NC(=O)OCc1ccccc1)C(=O)N[C@H](C(=O)N[C@@H](CC(=O)OC)C(=O)CF)C(C)C [z-DEVD.fmk]
  activity of endogenous kinases (in-gel, MBP substrate): diminished level of activity
Listed as caspase-3 inhibitor
  activity of endogenous kinases (in-gel, MBP substrate): significant loss of MBP-directed cellular kinase activities
